Laboratory results reported in patent US20250361230A1, “LATS Inhibitors and Uses Thereof” (The USA, as Represented by the Secretary, Dept. of Heath …, priority 2022, published 2025).
Where two headings read alike, the source gives them in different places.

Columns and labels:
Format in all cases: biochemical
AKT = AKT (Homo sapiens, UniProt P31749); experiment: RBC HotSpot kinase assay (33P-ATP, P81 filter-binding), AKT; conditions: read-out: AKT IC50
Procedure: (§1) Biochemical kinase inhibitory data was obtained for various exemplary compounds prepared according to the above.
(§2) The reagents used are as follows: Base Reaction buffer; 20 mM Hepes (pH 7.5), 10 mM MgCl2, 1 mM EGTA, 0.01% Brij35, 0.02 mg/ml BSA, 0.1 mM Na3VO4, 2 mM DTT, […]. Required cofactors were added individually to each kinase reaction.
(§3) The reaction procedure was as follows: • 1) Substrates were prepared in freshly prepared Reaction Buffer. • 2) Any required cofactors were delivered to the substrate solution above. • 3) Kinase was delivered into the substrate solution and gently mixed. • 4) Compounds were delivered in 100% DMSO into the kinase reaction mixture by Acoustic technology (Echo550; nanoliter range), followed by incubation for 20 min at room temp. • 5) ^33P-ATP was delivered into the reaction mixture to initiate the reaction. • 6) The mixture was incubated for 2 hours at room temperature. • 7) Kinase activity was detected by P81 filter-binding method.
(§4) Using the above functional assay, the inhibitory activity of the compounds for LATS1/2 versus AKT was characterized. The assays were typically run in a 10-point curve, in singlet, to produce a titration curve from which an IC50 value was obtained.
(§5) The reagents used are as follows: Base Reaction buffer; 20 mM Hepes (pH 7.5), 10 mM MgCl2, 1 mM EGTA, 0.01% Brij35, 0.02 mg/ml BSA, 0.1 mM Na3VO4, 2 mM DTT, 1% DMSO. Required cofactors were added individually to each kinase reaction.
(§6) Biochemical kinase inhibitory data was obtained for various exemplary compounds prepared according to the above in accordance with the protocols described in Examples 4 and 8. All biological activities are IC50, in nM.

LATS1 = target: T1, LATS1 (Homo sapiens, UniProt O95835); experiment: RBC HotSpot kinase assay (33P-ATP, P81 filter-binding), LATS1; conditions: read-out: LATS1 IC50
T1 sequence (O95835 1-1130): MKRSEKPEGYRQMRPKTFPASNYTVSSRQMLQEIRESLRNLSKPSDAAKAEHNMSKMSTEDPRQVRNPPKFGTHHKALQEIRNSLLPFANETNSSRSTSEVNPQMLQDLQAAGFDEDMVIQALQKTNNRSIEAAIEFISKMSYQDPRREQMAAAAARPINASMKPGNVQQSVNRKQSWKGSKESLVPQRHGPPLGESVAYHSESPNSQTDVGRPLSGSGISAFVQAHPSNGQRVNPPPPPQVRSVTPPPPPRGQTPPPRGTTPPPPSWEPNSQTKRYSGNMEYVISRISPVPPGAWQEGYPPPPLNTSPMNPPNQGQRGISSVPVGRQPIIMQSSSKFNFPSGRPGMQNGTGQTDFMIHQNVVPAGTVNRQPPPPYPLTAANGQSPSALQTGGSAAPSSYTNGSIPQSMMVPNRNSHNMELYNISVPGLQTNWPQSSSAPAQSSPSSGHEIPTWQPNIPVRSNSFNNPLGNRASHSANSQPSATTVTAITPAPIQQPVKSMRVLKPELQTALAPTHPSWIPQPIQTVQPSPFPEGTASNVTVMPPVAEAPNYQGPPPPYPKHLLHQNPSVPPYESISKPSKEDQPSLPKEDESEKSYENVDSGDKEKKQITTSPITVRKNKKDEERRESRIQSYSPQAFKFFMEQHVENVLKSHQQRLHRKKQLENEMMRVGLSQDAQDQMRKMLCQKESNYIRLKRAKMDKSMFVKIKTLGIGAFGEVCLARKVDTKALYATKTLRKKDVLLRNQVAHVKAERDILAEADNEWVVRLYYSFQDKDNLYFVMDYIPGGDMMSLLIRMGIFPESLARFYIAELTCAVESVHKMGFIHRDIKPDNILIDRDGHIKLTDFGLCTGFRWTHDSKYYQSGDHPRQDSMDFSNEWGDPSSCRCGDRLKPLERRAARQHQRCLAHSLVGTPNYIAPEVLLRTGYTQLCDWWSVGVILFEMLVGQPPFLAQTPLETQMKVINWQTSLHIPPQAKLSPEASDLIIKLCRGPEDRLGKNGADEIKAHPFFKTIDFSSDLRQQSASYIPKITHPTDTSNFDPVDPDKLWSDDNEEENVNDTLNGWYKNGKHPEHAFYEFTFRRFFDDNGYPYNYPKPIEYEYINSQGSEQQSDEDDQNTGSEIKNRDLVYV
Procedure: as §1, §2, §3, §4, §5, §6

LATS2 = target: T2, LATS2 (Homo sapiens, UniProt Q9NRM7); experiment: RBC HotSpot kinase assay (33P-ATP, P81 filter-binding), LATS2; conditions: read-out: LATS2 IC50
T2 sequence (Q9NRM7 1-1088): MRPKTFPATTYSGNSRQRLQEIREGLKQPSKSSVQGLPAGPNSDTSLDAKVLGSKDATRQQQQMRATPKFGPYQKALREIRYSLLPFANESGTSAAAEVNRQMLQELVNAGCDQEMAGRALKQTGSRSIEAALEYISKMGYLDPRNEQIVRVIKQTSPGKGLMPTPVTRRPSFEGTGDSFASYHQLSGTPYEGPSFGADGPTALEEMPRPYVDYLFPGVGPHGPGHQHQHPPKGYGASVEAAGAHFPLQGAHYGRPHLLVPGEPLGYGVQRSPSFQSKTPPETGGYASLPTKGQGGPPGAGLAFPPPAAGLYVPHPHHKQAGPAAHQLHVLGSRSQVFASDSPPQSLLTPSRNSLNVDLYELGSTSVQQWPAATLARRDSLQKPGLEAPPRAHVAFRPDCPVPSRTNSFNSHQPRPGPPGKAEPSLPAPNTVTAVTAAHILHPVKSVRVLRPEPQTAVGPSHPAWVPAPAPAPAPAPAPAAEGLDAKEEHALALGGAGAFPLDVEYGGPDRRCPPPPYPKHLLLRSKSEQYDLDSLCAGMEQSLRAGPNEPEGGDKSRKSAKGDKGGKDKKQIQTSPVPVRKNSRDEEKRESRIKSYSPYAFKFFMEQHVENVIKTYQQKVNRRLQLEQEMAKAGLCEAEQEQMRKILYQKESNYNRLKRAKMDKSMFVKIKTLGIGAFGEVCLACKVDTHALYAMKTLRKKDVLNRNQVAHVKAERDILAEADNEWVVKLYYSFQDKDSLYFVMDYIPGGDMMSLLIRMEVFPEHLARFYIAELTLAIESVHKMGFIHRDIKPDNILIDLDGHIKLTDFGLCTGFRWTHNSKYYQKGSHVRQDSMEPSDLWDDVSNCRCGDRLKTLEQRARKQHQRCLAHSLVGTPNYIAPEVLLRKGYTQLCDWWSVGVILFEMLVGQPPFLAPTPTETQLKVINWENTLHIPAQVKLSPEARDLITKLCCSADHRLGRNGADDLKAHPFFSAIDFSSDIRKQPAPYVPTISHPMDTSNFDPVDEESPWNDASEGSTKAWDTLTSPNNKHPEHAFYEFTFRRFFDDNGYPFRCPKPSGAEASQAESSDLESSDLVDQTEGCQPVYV
Procedure: as §1, §2, §3, §4, §5, §6

[1] = Table 28, biochemical kinase assay

AKT, sequence (P31749 whole entry): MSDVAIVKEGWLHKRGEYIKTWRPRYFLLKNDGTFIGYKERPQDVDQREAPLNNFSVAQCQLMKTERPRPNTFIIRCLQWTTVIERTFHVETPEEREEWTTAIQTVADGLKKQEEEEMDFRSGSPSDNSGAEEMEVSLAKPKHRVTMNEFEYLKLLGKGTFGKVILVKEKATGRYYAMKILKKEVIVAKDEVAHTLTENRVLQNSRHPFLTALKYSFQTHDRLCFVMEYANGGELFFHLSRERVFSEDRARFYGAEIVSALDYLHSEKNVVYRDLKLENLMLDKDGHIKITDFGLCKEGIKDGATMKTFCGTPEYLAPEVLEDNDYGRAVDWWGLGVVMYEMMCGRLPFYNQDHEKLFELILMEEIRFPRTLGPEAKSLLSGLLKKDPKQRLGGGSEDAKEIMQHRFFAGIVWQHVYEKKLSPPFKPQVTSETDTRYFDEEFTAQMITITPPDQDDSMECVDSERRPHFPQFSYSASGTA

Row | IC50 (AKT; biochemical kinase inhibition) [nM] | IC50 (LATS1; biochemical kinase inhibition) [nM] | IC50 (LATS2; biochemical kinase inhibition) [nM] | IC50 (AKT; [1]) [nM] | IC50 (LATS1; [1]) [nM] | IC50 (LATS2; [1]) [nM] | SMILES
1 | 126 | 3.6 | 1.4 | – | – | – | Cc1cc(-c2ccnc3[nH]cc(C#N)c23)cc(F)c1[C@@]1(O)[C@H](C)CN(C(=O)[C@H](N)CO)C[C@@H]1C (single isomer, unassigned) [Compound 2006]
2 | – | – | – | 4410 | 72.3 | 49.6 | Cc1c[nH]c2nccc(-c3ccc([C@@]4(O)[C@H](C)CNC[C@@H]4C)cn3)c12 [Compound 3, (3R,4s,5S)-3,5-dimethyl-4-(6-(3-methyl-1H-pyrrolo[2,3-b]pyridin-4-yl)pyridin-3-yl)piperidin-4-ol]
3 | – | – | – | 4160 | 18.2 | 56.7 | COc1cc(-c2ccnc3[nH]cc(F)c23)ncc1[C@@]1(O)[C@H](C)CNC[C@@H]1C [Compound 4, (3R,4s,5S)-4-(6-(3-fluoro-1H-pyrrolo[2,3-b]pyridin-4-yl)-4-methoxypyridin-3-yl)-3,5-dimethylpiperidin-4-ol]
4 | – | – | – | 67 | 9.2 | 12.5 | C[C@@H]1CN(C)C[C@H](C)[C@@]1(O)c1ccc(-c2ccnc3[nH]cc(F)c23)cc1Cl [Compound 5, (3S,4s,5R)-4-(2-chloro-4-(3-fluoro-1H-pyrrolo[2,3-b]pyridin-4-yl)phenyl)-1,3,5-trimethylpiperidin-4-ol]
5 | – | – | – | 90.9 | 1.3 | 1.4 | CC(C)N1C[C@@H](C)[C@](O)(c2ccc(-c3ccnc4[nH]cc(F)c34)cc2Cl)[C@@H](C)C1 [Compound 6, (3S,4s,5R)-4-(2-chloro-4-(3-fluoro-1H-pyrrolo[2,3-b]pyridin-4-yl)phenyl)-1-isopropyl-3,5-dimethylpiperidin-4-ol]
6 | – | – | – | 1720 | 23.7 | 20.3 | Cc1nc(-c2ccnc3[nH]cc(F)c23)ccc1[C@@]1(O)[C@H](C)CNC[C@@H]1C [Compound 10, (3S,4s,5R)-4-(6-(3-fluoro-1H-pyrrolo[2,3-b]pyridin-4-yl)-2-methylpyridin-3-yl)-3,5-dimethylpiperidin-4-ol]
7 | – | – | – | 143 | 11.1 | 10.7 | C[C@@H]1CNC[C@H](C)[C@@]1(O)c1ccc(-c2ccnc3[nH]cc(F)c23)cc1C(F)(F)F [Compound 11, (3S,4s,5R)-4-(4-(3-fluoro-1H-pyrrolo[2,3-b]pyridin-4-yl)-2-(trifluoromethyl)phenyl)-3,5-dimethylpiperidin-4-ol]
8 | – | – | – | 10.1 | 201 | 81.2 | Cc1cc(-c2ccnc3[nH]cc(F)c23)cc(Cl)c1[C@@]1(O)[C@H](C)CNC[C@@H]1C [Compound 12, (3S,4s,5R)-4-(2-chloro-4-(3-fluoro-1H-pyrrolo[2,3-b]pyridin-4-yl)-6-methylphenyl)-3,5-dimethylpiperidin-4-ol]
9 | – | – | – | 362 | 8.5 | 7.2 | Cc1c[nH]c2nccc(-c3cc(F)c([C@@]4(O)[C@H](C)CNC[C@@H]4C)c(F)c3)c12 [Compound 15]
10 | – | – | – | 1020 | 11 | 9.2 | C[C@@H]1CN(Cc2ccncc2)C[C@H](C)[C@@]1(O)c1c(F)cc(-c2ccnc3[nH]cc(F)c23)cc1F [Compound 19, (3S,4s,5R)-4-(2,6-difluoro-4-(3-fluoro-1H-pyrrolo[2,3-b]pyridin-4-yl)phenyl)-3,5-dimethyl-1-(pyridin-4-ylmethyl)piperidin-4-ol]
11 | – | – | – | 195 | 2.6 | 2.7 | C[C@@H]1CN(C2CCC2)C[C@H](C)[C@@]1(O)c1ccc(-c2ccnc3[nH]cc(F)c23)cc1Cl [Compound 20, (3S,4s,5R)-4-(2-chloro-4-(3-fluoro-1H-pyrrolo[2,3-b]pyridin-4-yl)phenyl)-1-cyclobutyl-3,5-dimethylpiperidin-4-ol]
12 | – | – | – | 249 | 3 | 2.8 | C[C@@H]1CN(C2COC2)C[C@H](C)[C@@]1(O)c1ccc(-c2ccnc3[nH]cc(F)c23)cc1Cl [Compound 21, (3S,4s,5R)-4-(2-chloro-4-(3-fluoro-1H-pyrrolo[2,3-b]pyridin-4-yl)phenyl)-3,5-dimethyl-1-(oxetan-3-yl)piperidin-4-ol]
13 | – | – | – | 18.8 | 0.73 | 0.51 | C[C@@H]1CN(C2CCS(=O)(=O)CC2)C[C@H](C)[C@@]1(O)c1ccc(-c2ccnc3[nH]cc(F)c23)cc1Cl [Compound 26, 4-((3S,4s,5R)-4-(2-chloro-4-(3-fluoro-1H-pyrrolo[2,3-b]pyridin-4-yl)phenyl)-4-hydroxy-3,5-dimethylpiperidin-1-yl)tetrahydro-2H-thiopyran 1,1-dioxide]
14 | – | – | – | 47.9 | 1.7 | 2.2 | Cc1cc(-c2ccnc3[nH]cc(F)c23)ccc1[C@@]1(O)[C@H](C)CN(C2CCOCC2)C[C@@H]1C [Compound 27, (3S,4s,5R)-4-(4-(3-fluoro-1H-pyrrolo[2,3-b]pyridin-4-yl)-2-methylphenyl)-3,5-dimethyl-1-(tetrahydro-2H-pyran-4-yl)piperidin-4-ol]

Row | SMILES | IC50 (AKT; biochemical kinase inhibition) [nM] | IC50 (LATS1; biochemical kinase inhibition) [nM] | IC50 (LATS2; biochemical kinase inhibition) [nM] | IC50 (AKT; [1]) [nM] | IC50 (LATS1; [1]) [nM] | IC50 (LATS2; [1]) [nM]
15 | Cc1cc(-c2ccnc3[nH]cc(F)c23)cc(F)c1[C@@]1(O)[C@H](C)CNC[C@@H]1C [Compound 16, (3S,4s,5R)-4-(2-fluoro-4-(3-fluoro-1H-pyrrolo[2,3-b]pyridin-4-yl)-6-methylphenyl)-3,5-dimethylpiperidin-4-ol] | – | – | – | 201 | 7.1 | 10
